# Tested on: aggrecan degradation induced with IL-1α
# Test: Inhibition of aggrecan degradation (aggrecanolysis) induced with IL-1α in LTC chondrocyte culture, Western Blot with anti-G1 antibody
# Type: cell-based, rat
# Settings: for inhibition of aggrecanolysis induced by IL-1α vs. the control: LTC rat chondrosarcoma chondrocyte culture, 10 ng/mL IL-1α, 4 days, control = culture with only IL-1α
# Description: The study of the inhibition of aggrecan degradation was performed on a chondrocyte culture from a rat chondrosarcoma cell line. This cell line, called LTC, deposits an extracellular matrix similar to the cartilage's, expresses all the components of the aggrecanase system, generates the fragmentation of aggrecan by said enzymes, and responds to known aggrecanolysis inhibitors such as glucosamine hydrochloride. The assays were performed on chondrocyte cultures from a rat chondrosarcoma cell line called LTC. The LTC cells were kept in a monolayer culture in a Gibco DMEM medium (Dulbecco's Modification of Eagle's Medium) (containing 4.5 g/L of glucose) supplemented with sodium bicarbonate (3.7 g/L), glutamine (2 mM), ascorbic acid (50 mg/L), gentamicin (50 mg/L), and bovine fetal serum Hyalone (10%), at pH 7.4. The confluent LTC cell cultures were trypsinised and 40,000 cells per 0.5 mL of culture were seeded in 48-well plates. They were maintained for 5 days, during which time they deposited 15-30 μg of glycosaminoglycans (GAG) in each well. The medium was separated, the cell membranes were washed by adding 5×1 mL of a catabolic medium {DMEM+4.5 g/L glucose supplemented with sodium bicarbonate (3.7 g/L), glutamine (2 mM), and 10 ng/mL of IL-1α (interleukin-1α) at pH 7.4}. Subsequently, the cultures were kept in 200 μL of this medium, supplemented or not with glucosamine hydrogen malate, for 4 days, without changing the medium, at 37° C. In order to verify the effect of glucosamine hydrogen malate on aggrecan degradation, a Western Blot was performed. For the Western Blot, 20 μL of 50 mM tris-acetate at pH 7.3 were added to each well. The cultures (medium+cell membrane) were deglycosylated with 50 mU of chondroitinase ABC at 37° C. for 4 hours. Subsequently, the samples in each well were recovered and centrifuged at 1,460 g for 10 minutes. 25 μL-fractions of the supernatant were separated by electrophoresis (gel gradient 8-12% SDS PAGE) and analysed by means of a Western Blot using anti-G1 antibody. The antiserum was used at a 1:5,000 dilution and the peroxidase-conjugated goat anti-(rabbit IgG) was detected by means of the Amersham ECL Kit. The exposure time ranged between 5 seconds and 5 minutes in order to obtain quantifiable images. The Western Blots were scanned and the bands were quantified by means of the SCION image analysis software. In relation to the described procedure, see: J. D. Sandy et al., Biochem. J. 335, 59-66 (1998).
SMILES,inhibition of aggrecanolysis induced by IL-1α vs. the control (1 mM) [%],inhibition of aggrecanolysis induced by IL-1α vs. the control (10 mM) [%],"effectiveness in inhibiting aggrecanolysis compared with glucosamine hydrochloride (FIG. 1) (10 mM, LTC culture with IL-1α)"
"Cl.N[C@H]1C(O)O[C@H](CO)[C@@H](O)[C@@H]1O (some centres unmarked) [glucosamine hydrochloride, reference compound]",83±4.9,53±5.8,–
"N[C@H]1C(O)O[C@H](CO)[C@@H](O)[C@@H]1O.O=C(O)CC(O)C(=O)O (some centres unmarked) [glucosamine hydrogen malate, Glucosamine Hydrogen Malate]",95±17.5,32±3.7,significantly more effective than glucosamine hydrochloride
